Results from US9737610B2 (priority 2010, dated 2017).
Entries after “also recorded” stand apart in the source; their conditions may differ.

Assays:
[1] = Physical stability assessment at 40° C./75% RH for 7 d (PLM, mDSC); assay type: physicochemical; conditions: after 40° C./75% RH for 7 d
Protocol: Each of the samples remained as irregular aggregates without birefringence/extinctions after stressed at 40° C./75% RH condition for 7 days. […] All of samples display a single apparent Tg at approximately 148° C.

[2] = Physical stability assessment in 0.1N HCl at 37° C. (PLM); assay type: physicochemical
Protocol: For the assessment of physical stability for samples in a 0.1N HCl solution maintained at 37° C., observations were made and microscopy images were acquired using polarized light at different time points including 0, 6 and 24 hrs, as summarized in Table 6. Based on the absence of birefringent particles when samples were observed by PLM, dispersions prepared with HPMC-AS HG and HPMC-AS MG display the highest physical stability under this particular stress condition.

[3] = Physical stability assessment at 60° C./dry for 7 d (PLM); assay type: physicochemical; conditions: after 60° C./dry for 7 d
Text: Each of the samples remained as irregular aggregates without birefringence/extinctions after stressed at this condition for 7 days.

[4] = Dog pharmacokinetics of API, amorphous and solid dispersion capsules, cross-over; parameters: species or system male beagle dogs; conditions: male, beagle, in vivo, po, 2200 mg
Protocol: Presented herein are dog pharmacokinetics (PK) studies comparing various forms of rifaximin. […] In the SD dosage form, the polymer used was HPMC-AS at a drug to polymer ratio of 50:50. The formulation also comprised pluronic F127 and crosscarmellose sodium (see Example 4). […] Blood was collected at timed intervals for 24 h after dosage administration, and plasma was harvested for LC-MS/MS analysis.

in vivo = conditions: dog, po, 2200 mg

| Compound | PLM results [1] | PLM results ([2]; 6 hrs) | PLM results ([2]; 24 hrs) | time at which crystallization (birefringence/extinctions) was observed ([2]; PLM) [h] | PLM results ([2]; time 0) | PLM results [3] | AUCINF_obs, mean [4] [ng·h/mL] | AUC_0-24, mean [4] [ng·h/mL] | AUClast, mean [4] [ng·h/mL] | Cmax, mean [4] [ng/mL] | half-life ([4]; Half-life, geometric mean) [h] | Tmax ([4]; Tmax, median) [h] | Half-life, geometric mean [4] [h] | Tmax [4] [h] | mean exposure (AUCinf) as compared with API [4] [fold] | AUC (in vivo) [ng·h/mL] | AUC(0-inf) (in vivo) [ng·h/mL] | Cmax (in vivo) [ng/mL] | Tmax (in vivo) [h] |
| --- | --- | --- | --- | --- | --- | --- | --- | --- | --- | --- | --- | --- | --- | --- | --- | --- | --- | --- | --- |
| CO[C@H]1/C=C/O[C@@]2(C)Oc3c(C)c(O)c4c(O)c(c5c(nc6cc(C)ccn65)c4c3C2=O)NC(=O)/C(C)=C\C=C\[C@H](C)[C@H](O)[C@@H](C)[C@@H](O)[C@@H](C)[C@H](OC(C)=O)[C@@H]1C [(100:0) Rifaximin-only, Rifaximin] | agg., irr., no B/E | clear view of B/E particles; also recorded: agg., no B/E + a few B/E particles | agg., no B/E + a few B/E particles | 6 | agg., irr., no B/E | agg., irr., no B/E |  |  |  |  |  |  |  |  |  |  |  |  |  |
| CO[C@H]1/C=C/O[C@@]2(C)Oc3c(C)c(O)c4c(O)c(c5c(nc6cc(C)ccn65)c4c3C2=O)NC(=O)/C(C)=C\C=C\[C@H](C)[C@H](O)[C@@H](C)[C@@H](O)[C@@H](C)[C@H](OC(C)=O)[C@@H]1C [API, Rifaximin] |  |  |  |  |  |  | 104 | 82 | 81 | 44.93 | 6.98 | 1 |  |  |  |  |  |  |  |
| CO[C@H]1/C=C/O[C@@]2(C)Oc3c(C)c(O)c4c(O)c(c5c(nc6cc(C)ccn65)c4c3C2=O)NC(=O)/C(C)=C\C=C\[C@H](C)[C@H](O)[C@@H](C)[C@@H](O)[C@@H](C)[C@H](OC(C)=O)[C@@H]1C [amorph, Rifaximin] |  |  |  |  |  |  | 4027 | 3908 | 3908 |  |  |  | 5.88 | 1 | ~40 | 3910 | 4030 | 1390 | 2 |
